Source: ChEMBL document CHEMBL5038581, “Design, synthesis, and biological evaluation of novel dual inhibitors targeting lysine specific demethylase 1 (LSD1) and histone deacetylases (HDAC) for treatment of gastric cancer” (Eur J Med Chem, 2021)

Key:
Histone deacetylase 1 = Histone deacetylase 1 (Homo sapiens, UniProt Q13547); test: Inhibition of HDAC1 (unknown origin) using Ac-peptide as substrate preincubated for 15 mins followed by substrate addition by fluorescence assay
Histone deacetylase 5 = Histone deacetylase 5 (Homo sapiens, UniProt Q9UQL6); test: Inhibition of HDAC5 (unknown origin) using Ac-peptide as substrate preincubated for 15 mins followed by substrate addition by fluorescence assay
[1] = Metabolic stability in human liver microsomes assessed as half life in presence of NADPH at 1 uM by LC-MS/MS analysis; type: ADME, Microsome
CYP2C9 = CYP2C9 (Homo sapiens, UniProt P11712); test: Inhibition of CYP2C9 (unknown origin) at 10 uM using diclofenac as substrate relative to control; type: ADME; conditions: probe diclofenac
CYP1A2 = target: T1, CYP1A2 (Homo sapiens, UniProt P05177); test: Inhibition of CYP1A2 (unknown origin) at 10 uM using phenacetin as substrate relative to control; type: ADME; conditions: probe phenacetin
T1 sequence (P05177 whole entry): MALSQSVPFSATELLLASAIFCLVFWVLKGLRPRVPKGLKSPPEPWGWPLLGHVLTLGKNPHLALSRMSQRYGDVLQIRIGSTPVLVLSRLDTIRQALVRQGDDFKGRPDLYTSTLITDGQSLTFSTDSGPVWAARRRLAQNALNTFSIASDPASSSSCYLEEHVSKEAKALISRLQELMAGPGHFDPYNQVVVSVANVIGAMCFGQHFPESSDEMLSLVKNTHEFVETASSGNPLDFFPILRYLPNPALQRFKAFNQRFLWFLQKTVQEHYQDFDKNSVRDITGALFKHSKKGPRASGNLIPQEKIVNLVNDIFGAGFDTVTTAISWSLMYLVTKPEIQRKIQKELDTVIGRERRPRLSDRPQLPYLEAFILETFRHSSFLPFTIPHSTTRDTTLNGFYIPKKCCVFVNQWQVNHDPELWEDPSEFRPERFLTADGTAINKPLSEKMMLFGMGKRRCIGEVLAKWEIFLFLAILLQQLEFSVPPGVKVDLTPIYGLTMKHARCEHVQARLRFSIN

[2] = target: Amine oxidase [flavin-containing] A (Homo sapiens, UniProt P21397); test: Inhibition of human recombinant MAO-A by multimode plate reader assay
Histone deacetylase 8 = Histone deacetylase 8 (Homo sapiens, UniProt Q9BY41); test: Inhibition of HDAC8 (unknown origin) using Ac-peptide as substrate preincubated for 15 mins followed by substrate addition by fluorescence based microplate reader analysis
Histone deacetylase 11 = Histone deacetylase 11 (Homo sapiens, UniProt Q96DB2); test: Inhibition of HDAC11 (unknown origin) using Ac-peptide as substrate preincubated for 15 mins followed by substrate addition by fluorescence based microplate reader analysis
MGC-803 [3] = test: Induction of apoptosis in human MGC-803 cells assessed as apoptotic cells at 2.5 uM incubated for 48 hrs by annexin V-FITC and PI staining based flowcytometry analysis (Rvb =4.9 %); type: functional
MGC-803 [4] = test: Induction of apoptosis in human MGC-803 cells assessed as increase in Bax protein expression at 1.25 to 7.5 uM incubated for 48 hrs by western blot analysis; type: functional, cell-based; conditions: dose 1.25-7.5 µM
MGC-803 [5] = test: Induction of apoptosis in human MGC-803 cells assessed as decrease in Bcl2 protein expression at 1.25 to 7.5 uM incubated for 48 hrs by western blot analysis; type: functional, cell-based; conditions: dose 1.25-7.5 µM
MGC-803 [6] = test: Inhibition of cell migration in human MGC-803 cells 0.2 to 0.8 uM up to 24 hrs by wound healing assay; type: functional, cell-based; conditions: dose 0.2-0.8 µM, time hrs <=24
CYP2C19 = CYP2C19 (Homo sapiens, UniProt P33261); test: Inhibition of CYP2C19 (unknown origin) at 10 uM using S-mephenytoin as substrate relative to control; type: ADME; conditions: probe S-mephenytoin
CYP2D6 = CYP2D6 (Homo sapiens, UniProt P10635); test: Inhibition of CYP2D6 (unknown origin) at 10 uM using dextromethorphan as substrate relative to control; type: ADME; conditions: probe dextromethorphan
CYP3A4 = CYP3A4 (Homo sapiens, UniProt P08684); test: Inhibition of CYP3A4 (unknown origin) at 10 uM using testosterone as substrate relative to control; type: ADME; conditions: probe testosterone
[7] = Metabolic stability in rat liver microsomes assessed as half life in presence of NADPH at 1 uM by LC-MS/MS analysis; type: ADME, Microsome
[8] = Metabolic stability in human liver microsomes assessed as intrinsic clearance in presence of NADPH at 1 uM by LC-MS/MS analysis; type: ADME, Microsome; conditions: read-out: CLH
[9] = Metabolic stability in rat liver microsomes assessed as intrinsic clearance in presence of NADPH at 1 uM by LC-MS/MS analysis; type: ADME, Microsome; conditions: read-out: CLH
HCT-116 = test: cells; conditions: Homo sapiens, HCT-116, 72 h
MGC-803 [10] = test: cells; conditions: Homo sapiens, MGC-803, 72 h

Histone deacetylase 11, sequence (Q96DB2 whole entry): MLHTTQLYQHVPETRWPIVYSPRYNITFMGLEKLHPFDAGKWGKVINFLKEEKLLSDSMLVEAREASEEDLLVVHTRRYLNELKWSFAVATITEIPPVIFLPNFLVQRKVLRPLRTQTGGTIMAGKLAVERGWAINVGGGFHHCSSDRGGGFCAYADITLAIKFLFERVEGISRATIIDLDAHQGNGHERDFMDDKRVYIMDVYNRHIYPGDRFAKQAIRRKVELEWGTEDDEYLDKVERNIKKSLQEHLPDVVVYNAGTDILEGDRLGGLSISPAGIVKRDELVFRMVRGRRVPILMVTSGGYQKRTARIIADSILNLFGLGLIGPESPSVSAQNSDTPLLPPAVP
Histone deacetylase 8, sequence (Q9BY41 whole entry): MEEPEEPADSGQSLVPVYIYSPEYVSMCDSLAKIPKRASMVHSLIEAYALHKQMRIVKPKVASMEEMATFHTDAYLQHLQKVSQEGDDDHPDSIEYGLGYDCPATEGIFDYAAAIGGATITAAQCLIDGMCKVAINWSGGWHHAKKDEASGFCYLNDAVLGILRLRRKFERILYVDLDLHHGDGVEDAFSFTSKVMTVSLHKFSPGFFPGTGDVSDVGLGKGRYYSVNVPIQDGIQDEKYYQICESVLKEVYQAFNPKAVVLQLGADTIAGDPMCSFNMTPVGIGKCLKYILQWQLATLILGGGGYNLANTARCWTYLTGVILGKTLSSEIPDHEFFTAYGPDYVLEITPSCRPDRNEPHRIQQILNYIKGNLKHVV
Histone deacetylase 1, sequence (Q13547 whole entry): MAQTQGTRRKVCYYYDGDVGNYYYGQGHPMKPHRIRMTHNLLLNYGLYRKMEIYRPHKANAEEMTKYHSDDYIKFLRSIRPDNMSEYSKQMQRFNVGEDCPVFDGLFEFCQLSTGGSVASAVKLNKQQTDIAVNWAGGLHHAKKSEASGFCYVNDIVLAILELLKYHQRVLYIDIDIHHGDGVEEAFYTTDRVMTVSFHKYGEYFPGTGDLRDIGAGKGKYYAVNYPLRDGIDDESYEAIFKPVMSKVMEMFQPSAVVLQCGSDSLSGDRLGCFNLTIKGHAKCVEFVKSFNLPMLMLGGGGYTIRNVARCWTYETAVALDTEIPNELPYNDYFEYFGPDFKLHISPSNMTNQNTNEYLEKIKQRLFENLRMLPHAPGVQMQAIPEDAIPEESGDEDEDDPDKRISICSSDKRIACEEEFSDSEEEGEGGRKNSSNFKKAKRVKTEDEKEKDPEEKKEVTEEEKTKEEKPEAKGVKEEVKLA
CYP2C9, sequence (P11712 whole entry): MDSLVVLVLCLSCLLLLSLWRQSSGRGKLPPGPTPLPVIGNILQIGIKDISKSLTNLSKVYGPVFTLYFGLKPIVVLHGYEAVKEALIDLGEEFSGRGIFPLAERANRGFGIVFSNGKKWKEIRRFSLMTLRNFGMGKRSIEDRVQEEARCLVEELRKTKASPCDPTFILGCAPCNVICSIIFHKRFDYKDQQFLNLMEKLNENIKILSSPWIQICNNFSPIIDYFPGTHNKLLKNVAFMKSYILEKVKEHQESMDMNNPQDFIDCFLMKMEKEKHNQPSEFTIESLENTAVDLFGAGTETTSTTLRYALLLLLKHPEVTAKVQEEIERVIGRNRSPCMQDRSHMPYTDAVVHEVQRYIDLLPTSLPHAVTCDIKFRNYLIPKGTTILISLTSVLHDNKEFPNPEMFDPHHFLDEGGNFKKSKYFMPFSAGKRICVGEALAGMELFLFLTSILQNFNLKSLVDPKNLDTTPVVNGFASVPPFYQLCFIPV
CYP2C19, sequence (P33261 whole entry): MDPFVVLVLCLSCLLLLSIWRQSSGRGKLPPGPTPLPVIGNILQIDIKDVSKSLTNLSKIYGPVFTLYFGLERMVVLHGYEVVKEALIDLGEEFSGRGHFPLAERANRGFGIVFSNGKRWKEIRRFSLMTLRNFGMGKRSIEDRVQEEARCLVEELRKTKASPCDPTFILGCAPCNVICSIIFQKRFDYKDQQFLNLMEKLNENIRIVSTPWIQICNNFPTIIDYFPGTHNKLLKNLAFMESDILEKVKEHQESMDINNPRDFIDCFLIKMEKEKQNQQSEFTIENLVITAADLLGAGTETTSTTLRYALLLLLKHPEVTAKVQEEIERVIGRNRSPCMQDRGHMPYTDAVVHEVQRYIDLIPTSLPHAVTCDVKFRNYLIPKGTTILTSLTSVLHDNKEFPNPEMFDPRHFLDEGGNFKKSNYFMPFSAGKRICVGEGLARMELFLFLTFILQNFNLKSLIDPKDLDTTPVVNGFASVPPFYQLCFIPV
CYP3A4, sequence (P08684 whole entry): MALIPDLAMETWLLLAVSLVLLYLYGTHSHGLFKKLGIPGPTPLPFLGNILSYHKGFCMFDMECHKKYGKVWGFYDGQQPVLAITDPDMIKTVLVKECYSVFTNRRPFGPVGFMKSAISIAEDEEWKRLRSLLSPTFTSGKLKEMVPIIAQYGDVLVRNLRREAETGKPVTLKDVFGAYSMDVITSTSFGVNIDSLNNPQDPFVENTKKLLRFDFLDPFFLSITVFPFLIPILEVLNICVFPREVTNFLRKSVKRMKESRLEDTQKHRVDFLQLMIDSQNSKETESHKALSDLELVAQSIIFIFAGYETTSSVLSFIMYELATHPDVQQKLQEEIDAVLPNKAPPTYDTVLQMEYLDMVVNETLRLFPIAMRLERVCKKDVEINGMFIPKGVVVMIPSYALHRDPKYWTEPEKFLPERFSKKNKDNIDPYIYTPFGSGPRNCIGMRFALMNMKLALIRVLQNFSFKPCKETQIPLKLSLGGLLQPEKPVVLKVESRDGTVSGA
Histone deacetylase 5, sequence (Q9UQL6 whole entry): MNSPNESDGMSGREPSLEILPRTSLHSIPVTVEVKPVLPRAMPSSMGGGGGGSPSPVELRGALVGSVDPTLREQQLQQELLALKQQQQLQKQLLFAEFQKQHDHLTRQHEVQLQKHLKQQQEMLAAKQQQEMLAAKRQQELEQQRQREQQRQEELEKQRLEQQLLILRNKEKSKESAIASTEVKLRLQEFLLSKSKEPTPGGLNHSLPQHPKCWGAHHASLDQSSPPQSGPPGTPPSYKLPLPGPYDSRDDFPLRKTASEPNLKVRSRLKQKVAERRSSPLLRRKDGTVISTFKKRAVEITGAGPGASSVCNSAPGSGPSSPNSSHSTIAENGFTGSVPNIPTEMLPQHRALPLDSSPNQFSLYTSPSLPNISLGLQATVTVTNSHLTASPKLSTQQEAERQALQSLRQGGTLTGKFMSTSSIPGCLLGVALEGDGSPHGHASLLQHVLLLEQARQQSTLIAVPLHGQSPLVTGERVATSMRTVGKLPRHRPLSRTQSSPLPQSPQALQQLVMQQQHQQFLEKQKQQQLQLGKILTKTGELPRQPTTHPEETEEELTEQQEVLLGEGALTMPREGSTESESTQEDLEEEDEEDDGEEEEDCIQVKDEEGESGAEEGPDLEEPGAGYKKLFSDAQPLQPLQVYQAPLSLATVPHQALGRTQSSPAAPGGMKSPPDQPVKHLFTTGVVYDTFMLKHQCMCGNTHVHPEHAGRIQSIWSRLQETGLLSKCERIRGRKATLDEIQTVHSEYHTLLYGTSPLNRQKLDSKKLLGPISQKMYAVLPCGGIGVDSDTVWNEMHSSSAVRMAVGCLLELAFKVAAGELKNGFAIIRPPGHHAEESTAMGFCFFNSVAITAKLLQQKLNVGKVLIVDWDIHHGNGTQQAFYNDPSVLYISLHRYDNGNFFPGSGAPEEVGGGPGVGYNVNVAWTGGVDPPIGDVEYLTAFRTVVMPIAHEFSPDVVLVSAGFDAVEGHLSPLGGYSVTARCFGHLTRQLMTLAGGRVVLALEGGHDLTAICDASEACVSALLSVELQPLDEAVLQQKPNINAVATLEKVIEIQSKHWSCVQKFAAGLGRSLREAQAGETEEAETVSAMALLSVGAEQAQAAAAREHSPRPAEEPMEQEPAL
CYP2D6, sequence (P10635 whole entry): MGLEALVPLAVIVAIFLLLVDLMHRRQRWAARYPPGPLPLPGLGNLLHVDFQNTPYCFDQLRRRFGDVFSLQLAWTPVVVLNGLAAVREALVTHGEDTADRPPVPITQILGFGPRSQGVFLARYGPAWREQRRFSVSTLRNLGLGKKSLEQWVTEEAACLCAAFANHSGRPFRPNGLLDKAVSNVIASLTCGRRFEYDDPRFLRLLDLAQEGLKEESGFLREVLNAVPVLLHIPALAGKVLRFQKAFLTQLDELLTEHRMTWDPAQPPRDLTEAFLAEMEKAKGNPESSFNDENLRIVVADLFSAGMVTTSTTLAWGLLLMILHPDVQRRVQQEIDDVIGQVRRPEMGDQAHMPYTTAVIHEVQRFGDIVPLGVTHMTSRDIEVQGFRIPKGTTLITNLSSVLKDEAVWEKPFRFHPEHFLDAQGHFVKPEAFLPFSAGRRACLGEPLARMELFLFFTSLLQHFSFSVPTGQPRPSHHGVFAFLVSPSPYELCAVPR
Amine oxidase [flavin-containing] A, sequence (P21397 whole entry): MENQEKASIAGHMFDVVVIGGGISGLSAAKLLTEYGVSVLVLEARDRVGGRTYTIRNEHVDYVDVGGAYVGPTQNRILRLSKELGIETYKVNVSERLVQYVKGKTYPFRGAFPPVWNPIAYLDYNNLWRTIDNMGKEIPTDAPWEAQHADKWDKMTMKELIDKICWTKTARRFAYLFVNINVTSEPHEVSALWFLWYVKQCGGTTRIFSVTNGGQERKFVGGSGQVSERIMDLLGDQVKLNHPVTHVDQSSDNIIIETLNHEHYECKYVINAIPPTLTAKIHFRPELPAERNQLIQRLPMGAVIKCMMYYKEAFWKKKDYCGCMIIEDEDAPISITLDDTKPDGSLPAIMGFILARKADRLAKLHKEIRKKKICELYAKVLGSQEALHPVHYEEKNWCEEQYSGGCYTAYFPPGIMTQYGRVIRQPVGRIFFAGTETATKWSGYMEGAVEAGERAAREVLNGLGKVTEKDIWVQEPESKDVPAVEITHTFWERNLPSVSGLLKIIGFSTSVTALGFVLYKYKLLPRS

Row | IC50 (Histone deacetylase 1) [µM] | IC50 (Histone deacetylase 5) [µM] | half-life at 1 µM [1] [min] | inhibition at 10 µM (CYP2C9) [%] | inhibition at 10 µM (CYP1A2) [%] | IC50 [2] [µM] | IC50 (Histone deacetylase 8) [µM] | IC50 (Histone deacetylase 11) [µM] | inhibition at 10 µM (CYP2C19) [%] | inhibition at 10 µM (CYP2D6) [%] | inhibition at 10 µM (CYP3A4) [%] | half-life at 1 µM [7] [min] | microsomal CLint at 1 µM [8] [µL/min/mg] | microsomal CLint at 1 µM [9] [µL/min/mg] | IC50 (HCT-116) [µM] | IC50 (MGC-803 [10]) [µM] | SMILES | Activity (MGC-803 [3]) [%] | Activity (MGC-803 [4]) | Activity (MGC-803 [5]) | inhibition (MGC-803 [6])
1 | 0.37 | > 10 | 51.3 | 11.7 | 0.95 | > 100 | 8.78 | 4.93 | 22.8 | 5.8 | 47.6 | 17.2 | 67.4 | 202 | 0.8 | 0.77 | Cc1ccc(-c2cc(/C=C/c3ccc(C(=O)NO)cc3)ccn2)c(F)c1 | 77.9 | Dose-Dependent Effect | Dose-Dependent Effect | Dose-Dependent Effect
2 | 0.22 | > 10 | 33 | 13.1 | 48.4 | 34.1 | 4.62 | > 10 | 18.7 | 15 | 87.9 | 6.9 | 105 | 505 | 1.45 | 1.42 | O=C(NO)c1ccc(/C=C/c2ccnc(-c3ccccc3O)c2)cc1 | 33.2 | Dose-Dependent Effect | Dose-Dependent Effect | Dose-Dependent Effect
